Data reported in patent US20240400555A1 (Initial Therapeutics, Inc., priority 2023, published 2024).
Blank lines part the entries; values can stand above or below the compound they belong to.

Tests used:
[1] = tested on: human lung cancer cell lines (H23 and H292); conditions: cited from earlier work
c-MYC [2] = test: In Vitro Translation Dose-Response Curves (In Vitro Multiple Point Translation Screening Assay); assay type: biochemical; conditions: IVT dose response curve
Procedure: HeLa S3 cell Preparation. HeLa S3 cells were grown essentially as described in Mikami 2010. Frozen aliquots of banked HeLa cells (ATCC #CCL-2.2) were thawed and diluted into agitated suspension culture in CD293 medium supplemented with 10% HI FBS, 1× GlutaMAX, and 1× Pen/Strep. Cells were expanded in suspension over 10 passages to inoculate 3×20 L wave bag bioreactors and cultured for approximately 48 h to a final density of 1.81×10^6 viable cells per mL. Cells were pelleted by centrifugation at 2500 RCF for 15 min at 4° C. Two 1 L pellets were combined in 32 sets and re-pelleted in 50 ml conical tubes, resulting in 32×10 mL cell pellets weighing approximately 10 g each. Final pellets were snap frozen in liquid nitrogen and stored at −80° C. (cell culture, harvesting, and cryo-preservation completed at LakePharma). Cell pellets were subsequently thawed at RT, resuspended in 15 mL wash buffer (35 mM HEPES-KOH, pH 7.5, 140 mM NaCl, and 11 mM glucose), then re-pelleted by centrifugation at 2500 RCF for 10 min at 4° C. The supernatant was discarded and the wash step repeated 2×. The pellets were resuspended each pellet in 10 mL in hypertonic extraction buffer (20 mM HEPES-KOH, pH 7.5, 45 mM potassium acetate, 45 mM KCl, 1.8 mM magnesium acetate, and 1 mM TCEP added directly before use). The cell suspension was transferred to a cell disruption vessel (Parr Instrument Company, model 4636, 1850 mL capacity) and incubated for 15 min on ice, then sealed under nitrogen (200 PSI) for 1.5 h. The cell homogenates were released through a needle valve and collected on ice, then diluted with 1/29 volume high potassium buffer (20 mM HEPES-KOH, pH 7.5, 945 mM potassium acetate, 945 mM KCl, 1.8 mM magnesium acetate, and 1 mM TCEP). The cell homogenates were then clarified by centrifugation at 2500 RCF for 10 min at 4° C. and the supernatant collected. The clarification step was repeated 3×. The resulting cell extracts (675 mL, 2.5 mg/mL total protein) were aliquoted and flash frozen in liquid nitrogen and stored at −80° C. until use.
Translation reactions were incubated for 20 min at 30° C. Nanoluciferase luminescence was measured by combining 2 μL of IVT reaction with 20 μL of prepared reagent from the Nanoglo assay kit (Promega). A negative control of 0.5% DMSO and positive control of 50 μM puromycin were used to define to assay window.
Dose response curve IVTs were performed similar to the single point IVT screening with the following changes. The desired concentration curves were plated into 384 well plates from DMSO stocks using a Tecan D300e dispenser. […] After reaction incubation and luminescence measurement, dose-response curves were fit to the data using Prism (Graphpad) or Collaborative Drug Discovery analysis programs.

[3] = tested on: HCT-116 Firefly-luciferase reporter cells; test: Cellular c-MYC Reporter Assay; assay type: cell-based; conditions: Homo sapiens, HCT-116 Firefly-luciferase reporter cells, 24 h; for EC50: HCT-116, 24 h, read-out: Geomean pEC50 (converted); for IC50: untitled table following Table 8a, read-out: pIC50 (converted)
Method in brief: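 Reporter cells seeded at 5e4 cells/mL in McCoy's 5A with 10% FBS and G418, dosed after 4–6 h at 0.2% final DMSO. After 24 h at 37 °C, luciferase luminescence was read with ONE-Glo.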

c-MYC [4] = test: Cellular c-MYC Alpha Screen; assay type: cell-based; conditions: Homo sapiens; c-MYC alpha screen dose response, HCT-116 reporter cells, 24 h; read-out: Geomean pIC50 (converted)
Procedure: HCT-116 Firefly-luciferase reporter cells (BPS bioscience) were seeded in 96-well tissue-culture treated sterile plates (Greiner Bio-One) at 7.5e4 cells/mL in 100 μL complete growth media (McCoy's 5A+10% FBS, +1% Pen-Strep, +1% G418). Cells were incubated at 37° C. with 5% CO2 for 24 h then treated with 3× compound solution in 50 μL complete growth media for a final volume of 150 μL per well with 0.2% DMSO. After 24 h incubation at 37° C. with 5% CO2, plates were allowed to equilibrate to RT for 20 min; the media was then aspirated, and the plate washed once with 200 μL 1×PBS. Cells were then lysed by addition of 1× Alpha Screen lysis buffer (50 μL) from the Perkin Elmer alpha Screen c-MYC detection kit (Part number 6760611C). The lysate is then transferred to ice and advanced to the Alpha Screen detection assay or sealed with adhesive foil and stored at −80° C. for up to 2 weeks before use.
The alpha screen detection assay was then performed as per the vendors instructions. Briefly the acceptor bead mix was prepared as per vendors instructions. 30 ul of the cell lysate is transferred to a 96-well white assay plate. 15 ul of the acceptor mix was added to each well and incubated in the dark for at least one hour. Then the donor bead mix was prepared as per vendors instructions and 15 ul of this was added to the assay plate. The plate was then incubated at RT for one hour in the dark. The plate was then read in the SpectraMax i3x plate reader (Molecular Devices) using the alpha screen module (excitation wavelength 680 emission wavelength 615) and analyzed using GraphPad Prism 9 software.

[5] = tested on: prostate cancer cell lines PC-3 and 22 Rv1; conditions: cited from earlier work
tumor growth = conditions: mice; cited from earlier work
murine models of MM = conditions: three murine models; cited from earlier work
[6] = tested on: NB4 cells and Nalm-6 cells; conditions: APL-derived NB4 cells and ALL-derived Nalm-6 cells; cited from earlier work

SMILES: CCc1ccc(O)c(CN(C)Cc2cc(CC)ccc2O)c1 [EMD, N, N-bis(5-ethyl-2-hydroxybenzyl) methylamine]
- cytotoxicity toward human lung cancer cell lines [1]: strong cytotoxicity

SMILES: Cc1cccc2ccnc(N(C(=O)c3ccc(-n4ccnn4)cc3)[C@@H]3CCCNC3)c12 [Example 54, (R)-N-(8-methylisoquinolin-1-yl)-N-(piperidin-3-yl)-4-(1H-1,2,3-triazol-1-yl)benzamide]
- Geomean pIC50 (c-MYC [2]): 4.70 (n = 2)

SMILES: Cc1cccc2ccnc(N(C(=O)c3ccc(Nc4ncccn4)cc3)[C@@H]3CCCNC3)c12 [Example 51, (R)-N-(8-methylisoquinolin-1-yl)-N-(piperidin-3-yl)-4-(pyrimidin-2-ylamino)benzamide]
- Geomean pIC50 (c-MYC [2]): 4.8 (n = 2)
- EC50 [3]: 251 nM
- IC50 (c-MYC [4]): 1000 nM

SMILES: C=CCc1ccc(O)c(-c2ccc(O)c(CC=C)c2)c1 [Honokiol]
- anti-cancer activity against prostate cancer cell lines [5]: significant anti-cancer activity
- levels of total and/or phosphorylated c-MYC protein and its mRNA expression [5]: marked decrease

SMILES: Cn1nc(C(F)(F)F)cc1-c1ccc(OCc2ccc(Cl)cc2)c(-c2cc(C(F)(F)F)cc(C(F)(F)F)c2)c1O [MYCi361]
- in vivo tumor growth (tumor growth): suppressed in vivo tumor growth in mice

SMILES: Cc1sc2c(c1C)C(c1ccc(Cl)cc1)=N[C@@H](CC(=O)OC(C)(C)C)c1nnc(C)n1-2 [JQ1]
- efficacy in murine models of MM (murine models of MM): efficacious in three murine models of MM

SMILES: CCc1ccc(/C=C2/SC(=S)NC2=O)cc1 [Compound 10058-F4]
- viability of leukemia cells [6]: reduced viability

SMILES: Cc1cccc2ccnc(N(C(=O)c3ccc(-n4c(C)nc5ccccc54)cc3)[C@@H]3CCCNC3)c12 [Example 57, (R)-4-(2-methyl-1H-benzo[d]imidazol-1-yl)-N-(8-methylisoquinolin-1-yl)-N-(piperidin-3-yl)benzamide]
- Geomean pIC50 (c-MYC [2]): 4.6 (n = 2)
- EC50 [3]: 257 nM

SMILES: Cc1cccc2ccnc(N(C(=O)c3ccc(-n4nnc5cccnc54)cc3)[C@@H]3CCCNC3)c12 [Example 50, (R)-4-(3H-[1,2,3]triazolo[4,5-b]pyridin-3-yl)-N-(8-methylisoquinolin-1-yl)-N-(piperidin-3-yl)benzamide]
- Geomean pIC50 (c-MYC [2]): 6.0 (n = 4)
- IC50 (c-MYC [4]): 158 nM

SMILES: Cn1ncc2ccnc(N(C(=O)c3ccc(Nc4ncccn4)cc3F)[C@@H]3CCCNC3)c21 [Example 119, (R)-2-fluoro-N-(1-methyl-1H-pyrazolo[3,4-c]pyridin-7-yl)-N-(piperidin-3-yl)-4-(pyrimidin-2-ylamino)benzamide]
- IC50 [3]: 1410 nM

SMILES: Cn1cc(-c2ccc(C(=O)N(c3cc(-c4cc[nH]n4)ccn3)[C@@H]3CCCNC3)cc2)nn1 [Example 110, 4-(1-methyltriazol-4-yl)-N-[(3R)-3-piperidyl]-N-[4-(1H-pyrazol-3-yl)-2-pyridyl] benzamide]
- IC50 [3]: > 10000 nM

SMILES: Cc1cccc2ccnc(N(C(=O)c3ccc(-c4n[nH]c5c4CCCC5)cc3F)[C@@H]3CCCNC3)c12 [Example 123, (R)-2-fluoro-N-(8-methylisoquinolin-1-yl)-N-(piperidin-3-yl)-4-(4,5,6,7-tetrahydro-1H-indazol-3-yl) benzamide]
- IC50 [3]: 5010 nM

Now from value to compound:

- IC50 [3]: 525 nM
- IC50 (c-MYC [4]): 398 nM
SMILES: Cc1cc(C2CCN(C(=O)N(c3nccc4cccc(C)c34)[C@@H]3CCCNC3)CC2)on1 [Example 243, (R)—N-(8-methylisoquinolin-1-yl)-4-(3-methylisoxazol-5-yl)-N-(piperidin-3-yl)piperidine-1-carboxamide]

- IC50 [3]: 4790 nM
SMILES: Cc1cccc2ccnc(N(C(=O)c3cccc(Cn4ccnn4)c3F)[C@@H]3CCCNC3)c12 [Example 271, (R)-3-((1H-1,2,3-triazol-1-yl)methyl)-2-fluoro-N-(8-methylisoquinolin-1-yl)-N-(piperidin-3-yl)benzamide]

- IC50 [3]: 3800 nM
SMILES: NC(=O)/C=C/c1ccc2ccnc(N(C(=O)c3ccc(-n4nnc5cccnc54)cc3F)[C@@H]3CCCNC3)c2c1 [Example 149, (R,E)-4-(3H-[1,2,3]triazolo[4,5-b]pyridin-3-yl)-N-(7-(3-amino-3-oxoprop-1-en-1-yl)isoquinolin-1-yl)-2-fluoro-N-(piperidin-3-yl)benzamide]

- IC50 [3]: 170 nM
SMILES: Cc1cccc2ccnc(N(C(=O)c3ccc(-n4nnc5ccc(C(F)(F)F)nc54)cc3F)[C@@H]3CCCNC3)c12 [Example 205, (R)-2-fluoro-N-(8-methylisoquinolin-1-yl)-N-(piperidin-3-yl)-4-(5-(trifluoromethyl)-3H-[1,2,3]triazolo[4,5-b]pyridin-3-yl)benzamide]

- IC50 [3]: 2950 nM
SMILES: Cc1ccnc(N(C(=O)c2ccc(-n3nnc4cccnc43)cc2F)[C@@H]2CCCNC2)c1/C=C/CCO [Example 137, (R,E)-4-(3H-[1,2,3]triazolo[4,5-b]pyridin-3-yl)-2-fluoro-N-(3-(4-hydroxybut-1-en-1-yl)-4-methylpyridin-2-yl)-N-(piperidin-3-yl)benzamide]

- IC50 [3]: 5370 nM
SMILES: Cc1cccc2ccnc(N(C(=O)N3CCCC(C)(c4ccccc4)C3)[C@@H]3CCCNC3)c12 (stereo partly drawn) [Example 267, 3-methyl-N-(8-methylisoquinolin-1-yl)-3-phenyl-N—((R)-piperidin-3-yl)piperidine-1-carboxamide]

- IC50 [3]: 240 nM
SMILES: COC(=O)c1ccc2nnn(-c3ccc(C(=O)N(c4nccc5cccc(C)c45)[C@@H]4CCCNC4)c(F)c3)c2n1 [Example 140, methyl (R)-3-(3-fluoro-4-((8-methylisoquinolin-1-yl)(piperidin-3-yl)carbamoyl)phenyl)-3H-[1,2,3]triazolo[4,5-b]pyridine-5-carboxylate]

- IC50 [3]: 501 nM
SMILES: O=C(c1ccc(-n2nnc3cccnc32)cc1F)N(c1ncccc1-c1cc2cnccc2s1)[C@@H]1CCCNC1 [Example 157, (R)-4-(3H-[1,2,3]triazolo[4,5-b]pyridin-3-yl)-2-fluoro-N-(piperidin-3-yl)-N-(3-(thieno[3,2-c]pyridin-2-yl)pyridin-2-yl)benzamide]

- IC50 [3]: 1050 nM
SMILES: O=C(c1ccc(-n2nnc3cccnc32)cc1F)N(c1nccc2ccc(CO)cc12)[C@@H]1CCCNC1 [Example 154, (R)-4-(3H-[1,2,3]triazolo[4,5-b]pyridin-3-yl)-2-fluoro-N-(7-(hydroxymethyl)isoquinolin-1-yl)-N-(piperidin-3-yl)benzamide]
